Key:
[1] = tested on: rat; settings: Eur J Pharmacol, 1989, 164: 445-54; cited from earlier work
[2] = tested on: food-deprived rats; assay: Hypophagia-inducing activity in food-deprived rats; type: in vivo, rat; settings: 10 mg/kg orally; rats deprived of food for 24 h; one hour after treatment; FIGS. 2A, 2B
Text: Verification of the consumption of food in food-deprived rats represents a condition that reproduces the complex system regulating the sensation of hunger and the intake of food in humans. Fasting in fact introduces many physiological changes that can lead to activation of the circuits that are specifically dedicated to the control of food intake. As is well known, the use of this model constitutes a valid tool for identifying substances capable of interfering with appetite disorders and can be used in particular for monitoring conditions such as hyperphagia, bulimia and obesity.
Male CD rats weighing 300-350 g were used.
The animals were kept in a room with a controlled cycle of light and darkness (6:00-18:00). Before the test, which was carried out at 9:30 corresponding to daytime, the animals were deprived of food for 24 h. At the end of the fasting period, the animals were treated orally with the test compounds (10 mg/kg) in an aqueous vehicle and, immediately after treatment, a pre-weighed amount of food was made available. One hour after treatment, the food consumption was evaluated by weighing the amount of food remaining. The control animals were treated orally with the vehicle (water) used for administering the test compounds.

[3] = tested on: Male CD rats; assay: Anxiogenic activity in the rat (test of social interaction); type: in vivo; settings: intraperitoneal; evaluated after 20 minutes during a 10-minute period; FIG. 1
Text: The anxiogenic activity of the compounds of the present invention was investigated by means of the social interaction test in the rat, which, as is known by a person skilled in the art, represents an experimental model that is predictive of the effects in humans.
Measurement of the time spent by pairs of animals in interacting with one another and exploring their surroundings (usually an arena consisting of a Perspex container) constitutes a model for verifying the action of substances that influence social behaviour.
Male CD rats weighing 150-250 g were used.
The animals were kept in a room with a controlled cycle of light and darkness (6:00-18:00). To promote acclimatization and eliminate responses induced by stress conditions, the rats were handled and were injected daily with the vehicle (water) for the four days preceding administration of the test compounds.
On the fifth day the animals were treated intraperitoneally with the test compounds and, after 20 minutes, the interaction time (seconds) spent by the animals during a 10-minute period was evaluated.

Row | SMILES | anxiogenic effects (social interaction time) [1] | amount of food consumed, lower than that consumed by the control animals [2] | interaction time relative to that of the control animals [3]
1 | FC(F)(F)c1cccc(N2CCNCC2)c1 [TFMPP, m-trifluoromethyl phenylpiperazine] | reduce social interaction time | – | –
2 | CC1CN(c2cccc(Cl)c2)CCN1 (racemic) [Compound 1] | – | approx. 28% | –
3 | C[C@H]1CN(c2cccc(Cl)c2)CCN1 [Compound 2] | – | 75-80% | –
4 | C[C@@H]1CN(c2cccc(Cl)c2)CCN1 [Compound 3] | – | ~20% | –
5 | Clc1cccc(N2CCNCC2)c1 [mCPP, m-chlorophenyl-piperazine] | reduce social interaction time | – | approx. 50%
